Data on 71 molecules can be found in PMC12040169 (PLOS Biology, 2025).

Each structure is given as a SMILES string.

The nature of this data set: in vitro. The conditions noted are these: human, hela cells, % viability.
With `COc1cccc2c1ncc1c(=O)nc(N)sc12` [CBK291241], the viability at 28.5 h, 10 µM stood at 88.9%.

`O=C(Cn1c(=O)cc(O)c2ccccc21)Nc1cccc(F)c1` [CBK291242]: the viability at 28.5 h, 10 µM is 98.1%.

Take `Cn1c(=O)c2c(O)cc(=O)n(Cc3ccccc3)c2n(C)c1=O` [CBK291245]: the viability at 28.5 h, 10 µM came out at 81.5%.

Turning to `Cc1cc(NC(=O)c2cc(Cl)ccc2[N+](=O)[O-])nc2c1c(=O)oc1ccccc12` [CBK291248], the viability at 28.5 h, 10 µM stood at 85.9%.

On to `Nc1nc(=O)c2cnc3c(F)cccc3c2s1` [CBK291249], for which the viability at 28.5 h, 10 µM stood at 91.1%.

Turning to `CCSc1nnc(NC(=O)c2cnc(SC)nc2CC)s1` [CBK291250], the viability at 28.5 h, 10 µM came out at 101%.

Take `Nc1nc2c(s1)c(O)nc(=O)n2Cc1ccccc1` [CBK291257]: the viability at 28.5 h, 10 µM turned out to be 88.6%.

Turning to `Cc1cc(NC(=O)c2cc([N+](=O)[O-])ccc2Cl)nc2c1c(=O)oc1ccccc12` [CBK291258], the viability at 28.5 h, 10 µM was determined as 90.8%.

With `CCn1c(=O)[nH]c(=O)c2cnc(-c3ccc(OC)cc3)nc21` [CBK291259], the viability at 28.5 h, 10 µM worked out at 107%.

`O=c1[nH]c(=O)n(Cc2cccnc2)c2nc[nH]c12` [CBK291260]: the viability at 28.5 h, 10 µM is 111%.

With `Cc1cc(NC(=O)c2ccc(Br)cc2)nc2c1c(=O)oc1ccccc12` [CBK291262], the viability at 28.5 h, 10 µM stood at 102%.

In the case of `O=C1COc2ccccc2C/C=C/CC2(CCN(C(=O)c3cncc(O)c3)CC2)C(=O)NCCN1` [CBK291989], the viability at 28.5 h, 10 µM worked out at 98.3%.

For `CC(=O)NCC(=O)N1CCCC2(C/C=C/COc3ccccc3C(=O)NCCNC2=O)C1` (centres unmarked) [CBK291991], the viability at 28.5 h, 10 µM was found to be 87.1%.

Take `O=C1COc2ccccc2CCCCC2(CCCN(C(=O)CN3CCCC3=O)C2)CN1` (centres unmarked) [CBK291992]: the viability at 28.5 h, 10 µM stood at 105%.

On to `O=C1COc2ccccc2CCCCC2(CCCN(C(=O)CCN3CCCC3=O)C2)CN1` (centres unmarked) [CBK291998], for which the viability at 28.5 h, 10 µM is 103%.

Regarding `CCC(=O)N1CC[C@H]2NC(=O)c3ccccc3OCC/C=C/C[C@H]2C1` [CBK291999], the viability at 28.5 h, 10 µM was found to be 91.3%.

As for `COC(C)(C)C(=O)N1CCC2(C/C=C/Cc3ccccc3OCC(=O)NCCNC2=O)CC1` [CBK292001], the viability at 28.5 h, 10 µM is 105%.

`O=C1COc2ccccc2C/C=C/CC2(CCN(C(=O)Cn3cccn3)CC2)C(=O)NCCN1` [CBK292003]: the viability at 28.5 h, 10 µM came to 117%.

On to `CC(=O)NCC(=O)N1CCC2(C/C=C/CNC(=O)c3ccccc3OCCNC2=O)CC1` [CBK292006], for which the viability at 28.5 h, 10 µM turned out to be 97.4%.

Consider `O=C1NC/C=C/CC2(CCN(Cc3ccc(Cl)cn3)CC2)C(=O)NCCOc2ccccc21` [CBK292008], for which the viability at 28.5 h, 10 µM came out at 103%.

On to `CC(=O)N1CC[C@H]2NC(=O)CNC(=O)C3(CCCC[C@H]2C1)CCN(C(=O)c1n[nH]c2c1CCC2)CC3` [CBK292012], for which the viability at 28.5 h, 10 µM worked out at 102%.

In the case of `CC(=O)NCC(=O)N1CC[C@@H]2NC(=O)CNC(=O)C3(CCCC[C@H]2C1)CCN(C(C)=O)CC3` [CBK292014], the viability at 28.5 h, 10 µM was found to be 91.8%.

`O=C1NCC2(C/C=C/CCOc3ccccc31)CCN(C(=O)Cc1cccc(F)c1)CC2` [CBK292015]: the viability at 28.5 h, 10 µM was determined as 81%.

For the molecule `O=C1NCC2(C/C=C/CCOc3ccccc31)CCN(C(=O)CCc1ccccc1)CC2` [CBK292017], the viability at 28.5 h, 10 µM turned out to be 71.2%.

As to `O=C1NCC2(C/C=C/CCOc3ccccc31)CCN(C(=O)c1ccncc1)CC2` [CBK292018], the viability at 28.5 h, 10 µM is 105%.

As for `O=C1COc2ccccc2C/C=C/CC2(CCN(C(=O)c3n[nH]c4c3CCC4)CC2)CN1` [CBK292019], the viability at 28.5 h, 10 µM was found to be 111%.

As for `O=C1COc2ccccc2C/C=C/CC2(CCN(C(=O)c3n[nH]c4ccccc34)CC2)CN1` [CBK292021], the viability at 28.5 h, 10 µM is 88.9%.

For `O=C1NCCNC(=O)C2(C/C=C/COc3ccccc31)CCN(C(=O)c1cncs1)CC2` [CBK292023], the viability at 28.5 h, 10 µM was 95.3%.

Regarding `O=C1NCCNC(=O)C2(C/C=C/COc3ccccc31)CCN(C(=O)CCN1CCCCC1)CC2` [CBK292026], the viability at 28.5 h, 10 µM is 110%.

For the molecule `O=C1COc2ccccc2C/C=C/CC2(CCCNC2)CN1` (centres unmarked) [CBK292029], the viability at 28.5 h, 10 µM was 91.5%.

Take `CC(=O)N1CC[C@H]2NC(=O)CNC(=O)C3(CCCC[C@H]2C1)CCN(C(=O)CC1CCOCC1)CC3` [CBK292030]: the viability at 28.5 h, 10 µM came out at 92.9%.

`O=C1COc2ccccc2C/C=C/C[C@H]2CNCC[C@H]2N1` [CBK292033]: the viability at 28.5 h, 10 µM is 101%.

Take `CN1C(=O)c2ccccc2OCCCCC[C@H]2[C@@H]1CCCN2C(=O)c1cc2c([nH]c1=O)CCC2` [CBK292034]: the viability at 28.5 h, 10 µM stood at 114%.

Turning to `O=C1COc2ccccc2C/C=C/CC2(CCCN(C(=O)CN3CSCC3=O)C2)CN1` (centres unmarked) [CBK292035], the viability at 28.5 h, 10 µM was 116%.

Turning to `Cc1noc(C)c1CCC(=O)N1CC[C@H]2NC(=O)c3ccccc3OCCCCC[C@H]2C1` [CBK292036], the viability at 28.5 h, 10 µM was determined as 96.5%.

Take `O=C1N[C@@H]2CCN(C(=O)COc3cccnc3)C[C@@H]2CCCCCOc2ccccc21` [CBK292037]: the viability at 28.5 h, 10 µM is 94.6%.

`O=C1N[C@@H]2CCN(C(=O)CCn3ccccc3=O)C[C@@H]2CCCCCOc2ccccc21` [CBK292039]: the viability at 28.5 h, 10 µM stood at 94.2%.

In the case of `NC(=O)CN1CCC[C@@H]2NC(=O)COc3ccccc3C(=O)N[C@@H]3CCOC[C@@H]3C/C=C/C[C@@H]21` [CBK292041], the viability at 28.5 h, 10 µM was determined as 103%.

Take `CC(=O)N1CCC[C@H]2NC(=O)CNC(=O)C3(C/C=C/C[C@H]21)CCN(c1ncccn1)CC3` [CBK292042]: the viability at 28.5 h, 10 µM came to 110%.

For `Cc1ccn(CC(=O)N2CC[C@H]3NC(=O)COc4ccccc4CCCC[C@@H]3C2)c(=O)c1` [CBK292045], the viability at 28.5 h, 10 µM was found to be 99.2%.

As to `O=C(CN1CC[C@H]2NC(=O)COc3ccccc3CCCC[C@@H]2C1)NCc1ccccn1` [CBK292046], the viability at 28.5 h, 10 µM is 96.7%.

For `O=C1COc2ccccc2CCCC[C@@H]2CN(C(=O)CN3C(=O)CNC3=O)CC[C@H]2N1` [CBK292047], the viability at 28.5 h, 10 µM turned out to be 92.7%.

`O=C1COc2ccccc2CCCC[C@@H]2CN(C(=O)Cn3ccc(=O)[nH]c3=O)CC[C@H]2N1` [CBK292048]: the viability at 28.5 h, 10 µM worked out at 102%.

Regarding `O=C1COc2ccccc2C/C=C/CC2(CCCN(C(=O)Cn3ccnc3)C2)CN1` (centres unmarked) [CBK292050], the viability at 28.5 h, 10 µM worked out at 107%.

Regarding `O=C1NCCCNC(=O)C2(C/C=C/CCOc3ccccc31)CCN(C(=O)CN1CCCC1)CC2` [CBK292052], the viability at 28.5 h, 10 µM came out at 101%.

Consider `CN1CCOc2ccccc2C(=O)NC/C=C/CC2(CCN(C(=O)c3ccc(F)cc3)CC2)C1=O` [CBK292055], for which the viability at 28.5 h, 10 µM came to 92%.

On to `Cc1ccc(CN2CC[C@H]3NC(=O)c4ccccc4OCC/C=C/C[C@H]3C2)cn1` [CBK292056], for which the viability at 28.5 h, 10 µM worked out at 98.6%.

As to `CC(=O)N1CCC[C@H]2NC(=O)CNC(=O)C3(C/C=C/C[C@H]21)CCN(C(=O)c1ccon1)CC3` [CBK292057], the viability at 28.5 h, 10 µM came out at 109%.

Take `Cc1nonc1CC(=O)N1CCC[C@@H]2[C@H]1C/C=C/Cc1ccccc1OCC(=O)N2C` [CBK292062]: the viability at 28.5 h, 10 µM came to 88.3%.

As to `CN1C(=O)COc2ccccc2C/C=C/C[C@@H]2[C@H]1CCCN2S(=O)(=O)N1CCOCC1` [CBK292063], the viability at 28.5 h, 10 µM was 90.6%.

As for `CC(C)C(=O)N1CCC[C@@H]2NC(=O)c3ccccc3OCC/C=C/C[C@@H]21` [CBK292064], the viability at 28.5 h, 10 µM turned out to be 101%.

Regarding `O=C1CNC(=O)C2(C/C=C/C[C@H]3COCC[C@@H]3N1)CCN(C(=O)c1cccc(Cl)c1)CC2` [CBK292066], the viability at 28.5 h, 10 µM amounted to 111%.

Take `CN1C(=O)COc2ccccc2C/C=C/C[C@@H]2[C@H]1CCCN2S(=O)(=O)c1cccnc1` [CBK292067]: the viability at 28.5 h, 10 µM amounted to 102%.

Regarding `Cc1nccc(C(=O)N2CCC3(C/C=C/C[C@H]4COCC[C@H]4NC(=O)CNC3=O)CC2)n1` [CBK292072], the viability at 28.5 h, 10 µM came out at 103%.

For the molecule `O=C1CNC(=O)C2(C/C=C/C[C@H]3COCC[C@H]3N1)CCN(Cc1cccc3[nH]ccc13)CC2` [CBK292073], the viability at 28.5 h, 10 µM was determined as 110%.

As for `O=C1NCCNC(=O)C2(CCCCOc3ccccc31)CCNCC2` [CBK292074], the viability at 28.5 h, 10 µM turned out to be 108%.

For `CN1C(=O)c2ccccc2OCCCCC[C@H]2NCCC[C@H]21` [CBK292075], the viability at 28.5 h, 10 µM was 110%.

Take `CN1C(=O)COc2ccccc2C/C=C/C[C@H]2CNCC[C@H]21` [CBK292076]: the viability at 28.5 h, 10 µM is 107%.

As to `Cc1ccc(C(=O)N2CCC[C@@H]3NC(=O)c4ccccc4OCC/C=C/C[C@@H]32)c(O)n1` [CBK292080], the viability at 28.5 h, 10 µM was 98.2%.

Turning to `Cc1ccn(CCC(=O)N2CCC[C@@H]3NC(=O)c4ccccc4OCC/C=C/C[C@@H]32)n1` [CBK292082], the viability at 28.5 h, 10 µM is 109%.

With `CN1C(=O)COc2ccccc2C/C=C/C[C@@H]2[C@H]1CCCN2C(=O)c1cnn2cccnc12` [CBK292083], the viability at 28.5 h, 10 µM worked out at 109%.

`O=C1NC/C=C/CC2(CCN(Cc3c[nH]c4ccccc34)CC2)C(=O)NCCOc2ccccc21` [CBK292085]: the viability at 28.5 h, 10 µM turned out to be 100%.

For the molecule `CN1C(=O)COc2ccccc2C/C=C/C[C@H]2CN(C(=O)C3CCC3)CC[C@H]21` [CBK292087], the viability at 28.5 h, 10 µM was determined as 95.1%.

Turning to `CC(=O)N1CCC[C@H]2NC(=O)CNC(=O)C3(C/C=C/C[C@H]21)CCN(CC(C)C)CC3` [CBK292088], the viability at 28.5 h, 10 µM amounted to 106%.

Turning to `CN1C(=O)COc2ccccc2CCCC[C@@H]2[C@H]1CCCN2C(=O)CCCn1cccn1` [CBK292090], the viability at 28.5 h, 10 µM was 111%.

As for `Cc1nc(CC(=O)N2CCC[C@@H]3[C@H]2CCCCc2ccccc2OCC(=O)N3C)cs1` [CBK292091], the viability at 28.5 h, 10 µM is 113%.

For the molecule `CC(C)N1CCC2(C/C=C/CNC(=O)c3ccccc3OCCNC2=O)CC1` [CBK292094], the viability at 28.5 h, 10 µM worked out at 98.7%.

For `O=C1NC/C=C/CC2(CCN(C(=O)c3cccnn3)CC2)C(=O)NCCOc2ccccc21` [CBK292095], the viability at 28.5 h, 10 µM is 108%.

Take `O=C1N[C@H]2CCCN(C(=O)Cn3cccnc3=O)[C@H]2CCCCCOc2ccccc21` [CBK292096]: the viability at 28.5 h, 10 µM is 109%.

Take `O=C1COc2ccccc2C/C=C/C[C@H]2CN(C(=O)c3noc4c3CCCC4)CC[C@H]2N1` [CBK292099]: the viability at 28.5 h, 10 µM worked out at 116%.

Turning to `Cn1cc(C(=O)N2CCCC3(C/C=C/COc4ccccc4C(=O)NCCNC3=O)C2)cn1` (centres unmarked) [CBK292102], the viability at 28.5 h, 10 µM turned out to be 96.4%.

One may read the viability as a read-out of living cells in per cent, often relative to untreated cells.
